For 23 molecules, IC50 results are on record in patent publication US12252488B2 (Nimbus Saturn, Inc., priority 2021, dated 2025).

The term IC50 denotes the concentration that gives 50% inhibition.

Where only a bound is given, the exact number is not on record here.

The target of the test is T1, HPK1 (Homo sapiens, UniProt Q92918).
T1 construct: purchased Invitrogen
T1 sequence (Q92918 whole entry): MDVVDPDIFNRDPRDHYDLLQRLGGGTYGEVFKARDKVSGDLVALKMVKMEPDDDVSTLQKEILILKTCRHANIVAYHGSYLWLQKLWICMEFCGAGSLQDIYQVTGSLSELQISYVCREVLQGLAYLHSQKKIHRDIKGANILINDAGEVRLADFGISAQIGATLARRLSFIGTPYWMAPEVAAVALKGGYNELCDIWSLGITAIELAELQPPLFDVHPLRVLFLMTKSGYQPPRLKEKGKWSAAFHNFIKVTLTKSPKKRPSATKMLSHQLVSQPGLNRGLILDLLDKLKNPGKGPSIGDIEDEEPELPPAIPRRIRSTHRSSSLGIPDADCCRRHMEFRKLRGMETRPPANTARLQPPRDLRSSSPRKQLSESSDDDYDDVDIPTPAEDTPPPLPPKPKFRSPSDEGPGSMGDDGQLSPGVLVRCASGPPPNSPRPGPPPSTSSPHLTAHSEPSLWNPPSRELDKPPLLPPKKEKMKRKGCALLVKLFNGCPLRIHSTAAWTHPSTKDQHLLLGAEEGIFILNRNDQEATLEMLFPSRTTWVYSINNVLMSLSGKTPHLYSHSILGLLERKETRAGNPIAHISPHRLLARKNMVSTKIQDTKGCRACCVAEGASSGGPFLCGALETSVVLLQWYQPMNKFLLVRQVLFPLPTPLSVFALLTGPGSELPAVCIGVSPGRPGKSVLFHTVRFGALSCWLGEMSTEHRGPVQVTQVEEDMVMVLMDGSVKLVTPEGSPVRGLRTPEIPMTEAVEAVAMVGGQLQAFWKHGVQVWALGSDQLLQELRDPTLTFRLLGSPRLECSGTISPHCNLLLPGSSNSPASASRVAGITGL
Put plainly: HPK1 biochemical enzyme assay (microfluidic mobility shift assay). The note with it: 1000 uM (1 mM) ATP; Caliper mobility shift; 1.5 nM HPK1; 30 min preincubation; read-out: HPK1 1000UMATP caliper IC50. In outline: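 Microfluidic mobility-shift readout with 1.5 nM HPK1 in pH 7.4 buffer; compounds (ten-point curves, top 3 μM final) preincubated 30 min with enzyme/substrate. Reaction started with 1 mM ATP and 1 μM substrate plus 5 mM MgCl2, run 60 min at RT. IC50 values binned into activity classes.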
For the molecule `CCNC(=O)C(C)(C)c1ccc(Nc2cc(-c3cc(C(C)C)ccc3F)nc3cc[nH]c(=O)c23)nc1` [I-128, N-ethyl-2-[6-[[2-(2-fluoro-5-isopropyl-phenyl)-5-oxo-6H-1,6-naphthyridin-4-yl]amino]-3-pyridyl]-2-methyl-propanamide], the half-inhibitory concentration (IC50) lay in the range of 100 to 1000 nM.
In the case of `O=C(Nc1ccc(-c2cc(Nc3ccc(C(=O)N4CCCC4)cc3)c3c(=O)[nH]ccc3n2)c(F)c1)C1CCCCC1` [I-160, N-[3-fluoro-4-[5-oxo-4-[4-(pyrrolidine-1-carbonyl)anilino]-6H-1,6-naphthyridin-2-yl]phenyl] cyclohexane carboxamide], the IC50 is no more than 100 nM.
Consider `COc1cc(-c2cc(Nc3ccc(N4CCN(C)CC4)cn3)c3c(=O)[nH]ccc3n2)c(F)cc1C(=O)N1CCCCC1` [I-193, 2-[2-fluoro-5-methoxy-4-(piperidine-1-carbonyl)phenyl]-4-[[5-(4-methyl-piperazin-1-yl)-2-pyridyl]amino]-6H-napthyridin-5-one], for which the IC50 is 100 to 1000 nM.
Consider `COc1ccc(F)c(-c2cc(Nc3ccc(N4CCC(O)CC4)cn3)c3c(=O)[nH]ccc3n2)c1F` [I-92, 2-(2,6-difluoro-3-methoxyphenyl)-4-((5-(4-hydroxypiperidin-1-yl)pyridin-2-yl)amino)-1,6-naphthyridin-5(6H)-one], for which the IC50 is 100 to 1000 nM.
As for `CC(C)c1ccc(F)c(-c2cc(Nc3ccc(N4CCC(O)CC4)cn3)c3c(=O)[nH]ccc3n2)c1` [I-48, 2-(2-fluoro-5-isopropyl-phenyl)-4-[[5-(4-hydroxy-1-piperidyl)-2-pyridyl]amino]-6H-1,6-naphthyridin-5-one], the figure is 100 to 1000 nM.
As for `COc1ccc(F)c(-c2cc(Nc3ccc(N4CCNCC4)cn3)c3c(=O)[nH]ccc3n2)c1F` [I-91, 2-(2,6-difluoro-3-methoxy-phenyl)-4-[(5-piperazin-1-yl-2-pyridyl)amino]-6H-1,6-naphthyridin-5-one], the 50% inhibitory concentration (IC50) is no more than 100 nM.
Consider `CN1CCN(Cc2ccc(-c3cc(Nc4ccc(N5CCC(O)CC5)cn4)c4c(=O)[nH]ccc4n3)c(F)c2)CC1` [I-180, 2-[2-fluoro-4-[(4-methyl-piperazin-1-yl)methyl]phenyl]-4-[[5-(4-hydroxy-1-piperidyl)-2-pyridyl]amino]-6H-1,6-naphthyridin-5-one], for which the 50% inhibitory concentration (IC50) was no more than 100 nM.
In the case of `O=c1[nH]ccc2nc(-c3cnc4ccccn34)cc(Nc3ccc(N4CCC(O)CC4)cn3)c12` [I-284, 4-[[5-(4-hydroxy-1-piperidy)-2-pyridyl]amino]-2-imidazo[1,2-a]pyridin-3-yl-6H-1,6-naphthyridin-5-one], the IC50 is greater than 1000 nM.
As for `CC(C)c1cc(Nc2ccc(S(C)(=O)=O)cn2)c2c(=O)[nH]ccc2n1` [I-23, 2-isopropyl-4-[(5-methyl-sulfonyl-2-pyridyl)amino]-6H-1,6-naphthyridin-5-one], the figure is 100 to 1000 nM; as for `O=c1[nH]ccc2nc(-c3ccc(CN4CCCCC4)cc3F)cc(Nc3ccc(N4CCC(O)CC4)cn3)c12` [I-127], 100 to 1000 nM; as for `COCCOC1CN(c2ccc(Nc3cc(-c4ccc(NC(=O)C5CCCCC5)cc4F)nc4cc[nH]c(=O)c34)nc2)C1` [I-189, N-[3-fluoro-4-[4-[[5-[3-(2-methoxy-ethoxy)azetidin-1-yl]-2-pyridyl]amino]-5-oxo-6H-1,6-naphthyridin-2-yl]phenyl] cyclohexane carboxamide], 100 to 1000 nM.
With `O=C(c1ccc(F)c(-c2cc(Nc3ccc(N4CCC(O)CC4)cn3)c3c(=O)[nH]ccc3n2)c1)N1CCC1` [I-95, 2-[5-(azetidine-1-carbonyl)-2-fluoro-phenyl]-4-[[5-(4-hydroxy-1-piperidyl)-2-pyridyl]amino]-6H-1,6-naphthyridin-5-one], the IC50 lay within 100 to 1000 nM.
Consider `CC(C)c1ccc(F)c(-c2cc(Nc3ccc(N4CCC5(CCOCC5)CC4)cn3)c3c(=O)[nH]ccc3n2)c1` [I-121, 2-(2-fluoro-5-isopropyl-phenyl)-4-[[5-(3-oxa-9-azaspiro [5.5]undecan-9-yl)-2-pyridyl]amino]-6H-1,6-naphthyridin-5-one], for which the concentration for half-maximal inhibition (IC50) was no more than 100 nM.
The figure for `O=c1[nH]ccc2nc(-c3ccc(C4CCCO4)cc3F)cc(Nc3ccc(N4CCC(O)CC4)cn3)c12` (centres unmarked) [I-276, 2-(2-fluoro-4-THF-2-yl-phenyl)-4-[[5-(4-hydroxy-1-piperidyl)-2-pyridyl]amino]-6H-1,6-naphthyridin-5-one] is greater than 1000 nM; for `O=C(Nc1ccc(-c2cc(Nc3ccc(N4CCC(O)CC4)cn3)c3c(=O)[nH]ccc3n2)c(F)c1)[C@H]1C[C@H]2CC[C@@H]1C2` (single isomer, unassigned) [I-275] it is no more than 100 nM; for `COc1cc(-c2cc(Nc3ccc(C4CC4)cn3)c3c(=O)[nH]ccc3n2)c(F)cc1C(=O)N1CCCCC1` [I-198, 4-[(5-cyclopropyl-2-pyridyl)amino]-2-[2-fluoro-5-methoxy-4-(piperidine-1-carbonyl)phenyl]-6H-1,6-naphthyridin-5-one] it is 100 to 1000 nM.
As for `CC(C)c1cc(Nc2ccc(N3CCN(C)CC3)cn2)c2c(=O)[nH]ccc2n1` [I-57, 2-isopropyl-4-[[5-(4-methyl-piperazin-1-yl)-2-pyridyl]amino]-6H-1,6-naphthyridin-5-one], the figure is no more than 100 nM; as for `O=C(c1ccc(-c2cc(Nc3ccc(N4CCC(O)CC4)cn3)c3c(=O)[nH]ccc3n2)c(F)c1)N1CCC(O)CC1` [I-140, 2-[2-fluoro-4-(4-hydroxy-piperidine-1-carbonyl)phenyl]-4-[[5-(4-hydroxy-1-piperidyl)-2-pyridyl]amino]-6H-1,6-naphthyridin-5-one], no more than 100 nM.
For the molecule `CNC1(c2ccc(F)c(-c3cc(Nc4ccc(N5CCC(O)CC5)cn4)c4c(=O)[nH]ccc4n3)c2)CC1` [I-221, 2-[2-fluoro-5-[1-(methyl-amino)cyclopropyl]phenyl]-4-[[5-(4-hydroxy-1-piperidyl)-2-pyridyl]amino]-6H-1,6-naphthyridin-5-one], the half-maximal inhibitory concentration (IC50) was in the range of 100 to 1000 nM.
As for `O=c1[nH]ccc2nc(-c3cc4c(cc3F)C(N3CCOCC3)CC4)cc(Nc3ccc(N4CCC(O)CC4)cn3)c12` (centres unmarked) [I-259, 2-(6-fluoro-1-morphoino-indan-5-y)-4-[[5-(4-hydroxy-1-piperidy)-2-pyridy]amino]-6H-1,6-naphthyridin-5-one], the figure is no more than 100 nM; as for `COC1CCCN(C(=O)c2ccc(-c3cc(Nc4ccc(N5CCC(O)CC5)cn4)c4c(=O)[nH]ccc4n3)c(F)c2)C1` (centres unmarked) [I-133, 2-[2-fluoro-4-(3-methoxy-piperidine-1-carbonyl)phenyl]-4-[[5-(4-hydroxy-1-piperidyl)-2-pyridyl]amino]-6H-1,6-naphthyridin-5-one], no more than 100 nM; as for `COc1cc(-c2cc(Nc3ccc(N4CCNCC4)cn3)c3c(=O)[nH]ccc3n2)ccc1C(=O)N1CCCCC1` [I-187, 2-[3-methoxy-4-(piperidine-1-carbonyl)phenyl]-4-[(5-piperazin-1-yl-2-pyridyl)amino]-6H-1,6-naphthyridin-5-one], 100 to 1000 nM.
As for `COc1cc(-c2cc(Nc3ccc(N4CCC(O)CC4)cn3)c3c(=O)[nH]ccc3n2)c(F)cc1CN1CCCCC1` [I-216, 2-[2-fluoro-5-methoxy-4-(1-piperidyl-methyl)phenyl]-4-[[5-(4-hydroxy-1-piperidyl)-2-pyridyl]amino]-6H-1,6-naphthyridin-5-one], the figure is greater than 1000 nM.
